# Experiments:
# [1] = from C=CC[C@@](C)(CCCCC(=O)O[C@H](/C(C)=C/I)[C@@H](C)C=C)O[Si](CC)(CC)CC; rcm bond; Hoveyda-Grubbs catalyst; toluene; 4.0 mM; 50.0 °C; 2.0 h
# [2] = in vivo; cited from earlier work
# [3] = tested on: WiDr-R cells (colon cancer cells; chemically-induced SF3B1 R1074H mutant); settings: R1074H mutation; cited from earlier work
compound,measurement,setting,value
CC[Si](CC)(CC)O[C@@]1(C)CC=C[C@H](C)[C@@H](/C(C)=C/I)OC(=O)CCCC1,"ring closure, yield of all isomers",[1],53%
tremelimumab,plasma half-life,[2],approximately 22 days
"CCC(O)C(C)C1OC1CC(C)(O)/C=C/C=C(\C)C1OC(=O)CC(O)CCC(C)(O)C(OC(=O)N2CCN(C3CCCCCC3)CC2)/C=C/C1C (stereo not drawn) [Compound E7107, (8E,12E,14E)-7-((4-Cycoheptylpiperazin-1-yl)carbonyl)oxy-3,6,16,21-tetrahydroxy-6,10,12,16,20-pentamethyl-18,19-epoxytricosa-8,12,14-trien-11-olide]",resistance of WiDr-R cells in terms of growth inhibition,[3],resistant

# — US11926619B2, “Certain pladienolide compounds and methods of use” (EISAI R&D MANAGEMENT CO., LTD., priority 2018, dated 2024)
